Laboratory results reported in patent publication US20250129095A1, “ANNULATED 2-AMINO-3-CYANO THIOPHENES AND DERIVATIVES FOR THE TREATMENT OF CANCER” (Boehringer Ingelheim Int'l GmbH Corp., priority 2021, published 2025).

How the values were obtained:
KRAS G12D Ba/F3 = KRAS G12D Ba/F3 (Homo sapiens, UniProt P01116, G12D, cells depend on it); assay: Ba/F3 proliferation assay, KRAS G12D; assay type: cell-based; conditions: 72 h, AlamarBlue, read-out: KRAS G12D Ba/F3 IC50
Description: (§1) Plasmids containing KRASG12 mutants(i.e. G12D, G12C, G12V) are obtained from GeneScript. To generate KRASG12-dependent Ba/F3 models, Ba/F3 cells are transduced with retroviruses containing vectors that harbor KRASG12 isoforms. Platinum-E cells (Cell Biolabs) are used for retrovirus packaging. Retrovirus is added to Ba/F3 cells. To ensure infection, 4 μg/mL polybrene is added and cells are spinfected. […] Cells with an infection efficiency of 10% to 20% are further cultivated and puromycin selection with 1 μg/mL is initiated. As a control, parental Ba/F3 cells are used to show selection status. Selection is considered successful when parental Ba/F3 cells cultures died. To evaluate the transforming potential of KRASG12 mutations, the growth medium is no longer supplemented with IL-3. Ba/F3 cells harboring the empty vector are used as a control. Approximately ten days before conducting the experiments, puromycin is left out.
(§2) Compounds are added using an Access Labcyte Workstation with a Labcyte Echo 550 or 555 accoustic dispenser. All treatments are performed in technical duplicates. […] AlamarBlue™ (ThermoFisher), a viability stain, is added and fluorescence measured in the PerkinElmer Envision HTS Multilabel Reader. The raw data are imported into and analyzed with the Boehringer Ingelheim proprietary software MegaLab (curve fitting based on the program PRISM, GraphPad Inc.).

[1] = Plasma protein binding assay (PPB), equilibrium dialysis; assay type: in vitro ADME; conditions: bovine, 10% FCS in PBS, read-out: PPB 10% FCS (% fu)
Description: Binding of test compounds to plasma was determined using equilibrium dialysis (ED) and quantitative mass spectrometry interfaced with liquid chromatography (LC-MS). In brief, ED was performed with dialysis devices consisting of two chambers separated by a semipermeable membrane with a molecular weight cut-off of 5-10 kg/mol. One chamber was filled with 10% FCS in PBS containing 1-10 μmol/L test compound and the other chamber was filled with phosphate-buffer saline (PBS) with or without dextran. The dialysis chamber was incubated for 3-5 hours at 37° C. After incubation, protein was precipitated from aliquots of each chamber and the concentration of test compound in the supernatant of the plasma-containing compartment (cserum) and of the buffer-containing compartment (cbuffer) was determined by LC-MS. The fraction of unbound test compound (not bound to plasma) (fu) was calculated according to the following equation: […]

[2] = Metabolic (microsomal) stability assay, human liver microsomes (HLM); assay type: in vitro ADME; conditions: 1 μM, predicted clearance as percent of liver blood flow
Description: The metabolic degradation of the test compound is assayed at 37° C. with pooled liver microsomes (mouse (MLM), rat (RLM) or human (HLM)). The final incubation volume of 48 μL per time point contains TRIS buffer (pH 7.5; 0.1 M), magnesium chloride (6.5 mM), microsomal protein (0.5 mg/mL for mouse/rat, 1 mg/mL for human specimens) and the test compound at a final concentration of 1 μM. Following a short preincubation period at 37° C., the reactions are initiated by addition of 12 μL beta-nicotinamide adenine dinucleotide phosphate, reduced form (NADPH, 10 mM) and terminated by transferring an aliquot into solvent after different time points (0, 5, 15, 30, 60 min). Additionally, the NADPH-independent degradation is monitored in incubations without NADPH, terminated at the last time point by addition of acetonitrile. The quenched incubations are pelleted by centrifugation (4,000 rpm, 15 min). An aliquot of the supernatant is assayed by LC-MS/MS to quantify the concentration of parent compound in the individual samples.
In vitro intrinsic clearance (CLint, in vitro) is calculated from the time course of the disappearance of the test drug during the microsomal incubation. Each plot is fitted to the first-order elimination rate constant as C(t)=C0*exp(−ke*t), where C(t) and C0 are the concentration of unchanged test drug at incubation time t and that at preincubation and ke is the disappearance rate constant of the unchanged drug. Subsequently, CLint, in vitro (μL min^−1·amount protein) values are converted to predicted CLint, in vitro (mL min^−1·kg^−1) from incubation parameters according to the equation CLint, in vitro=CLint, in vitro×(incubation volume (ml)/amount protein (mg))×(amount protein (mg)/g liver tissue)×(liver weight/body wt.). For better across species comparison the predicted clearance is expressed as percent of the liver blood flow [% QH](mL min^−1·kg^−1) in the individual species. In general, high stability (corresponding to low % QH) of the compounds across species is desired.

KRAS G12C Ba/F3 = KRAS G12C Ba/F3 (Homo sapiens, UniProt P01116, G12C, cells depend on it); assay: Ba/F3 proliferation assay, KRAS G12C; assay type: cell-based; conditions: 72 h, AlamarBlue, read-out: KRAS G12C Ba/F3 IC50
Description: as §1, §2

NCI-H2122 cells = assay: NCI-H2122 CTG proliferation assay (120 h) (NSCLC, G12C); assay type: cell-based; conditions: Homo sapiens
Description: The CTG assay is designed to measure quantitatively the proliferation of NCI-H2122 cells (ATCC CRL-5985), using the CellTiter Glow Assay Kit (Promega G7571). Cells are grown in RPMI medium (ATCC) supplemented with Fetal Calf Serum (Life Technologies, Gibco BRL, Cat. No. 10270-106). On “day 0” 200 NCI-H2122 cells are seeded in 60 μL RPMI ATCC+10% FCS+Penstrep in a black 384-well plate, flat and clear bottom (Greiner, PNr. 781091). Cells are then incubated in the plates at 37° C. in a CO2 incubator overnight. On day 1, compounds (10 mM stock in DMSO) are added with the ECHO acoustic liquid handler system (Beckman Coulter), including DMSO controls. Plates are incubated for 120 h, and cell viability is measured using CellTiter-Glo luminescent cell viability reagent (Promega product code G7570). Viability (stated as percent of control) is defined as relative luminescence units RLU of each well divided by the RLU of cells in DMSO controls. […] values are determined from viability measurements by non-linear regression using a four parameter model. • AsPC-1 CTG proliieradon assay (120 h) (pancreatic cancer, G12D)

Sequence of KRAS G12C Ba/F3 (P01116 whole entry G12C): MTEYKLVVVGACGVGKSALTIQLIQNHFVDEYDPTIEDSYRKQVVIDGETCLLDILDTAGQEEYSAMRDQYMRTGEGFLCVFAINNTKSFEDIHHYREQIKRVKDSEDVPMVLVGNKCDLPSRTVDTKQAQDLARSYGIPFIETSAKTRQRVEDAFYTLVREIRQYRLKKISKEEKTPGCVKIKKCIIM
Sequence of KRAS G12D Ba/F3 (P01116 whole entry G12D, canonical isoform): as the sequence (P01116 whole entry G12C) above, with C12D counted along it

Compound | GI50 (KRAS G12D Ba/F3) [nM] | fraction unbound [1] | HLM QH [%] [2] [%] | GI50 (KRAS G12C Ba/F3) [nM] | IC50 (NCI-H2122 cells) [nM]
C[C@H](Oc1cc(OCCO)nc(-c2noc3c2CCC[C@@]32CCCc3sc(N)c(C#N)c32)n1)[C@@H]1CCCN1C [II-6] | 16 | 0.72 | 40 | 11 | 1650
C[C@H](Oc1cc(Oc2nccs2)nc(-c2onc3c2CCC[C@@]32CCCc3sc(N)c(C#N)c32)n1)[C@@H]1CCCN1C [Example I-1] | 11 | 0.25 | 44 | 4 | 1470
C[C@H](Oc1cc(Oc2nccs2)nc(-c2noc3c2CCC[C@@]32CCCc3sc(N)c(C#N)c32)n1)[C@@H]1CCCN1C [II-2] | 20 | 0.07 | 46 | 5 | 77
C[C@H](Oc1cc(Nc2ncccn2)nc(-c2noc3c2CCC[C@@]32CCCc3sc(N)c(C#N)c32)n1)[C@@H]1CCCN1C [II-17] | 33 | 0.28 | <24 | 19 | 1650
C[C@H](Oc1cc(Oc2cnccn2)nc(-c2noc3c2CCC[C@@]32CCCc3sc(N)c(C#N)c32)n1)[C@@H]1CCCN1C [II-7] | 10 | 0.28 | 72 | 4 | 997
C[C@H](Oc1cc(O[C@H]2CNC(C)(C)C2)nc(-c2noc3c2CCC[C@@]32CCCc3sc(N)c(C#N)c32)n1)[C@@H]1CCCN1C (single isomer, unassigned) [II-8] | 388 | 0.59 | <24 | 592 | 1340
C[C@H](Oc1cc(O[C@H]2CCOC2)nc(-c2noc3c2CCC[C@@]32CCCc3sc(N)c(C#N)c32)n1)[C@@H]1CCCN1C [II-4] | 31 | 0.54 | 59 | 12 | 817
C[C@H](Oc1cc(O[C@@H]2CNC[C@@H]2F)nc(-c2noc3c2CCC[C@@]32CCCc3sc(N)c(C#N)c32)n1)[C@@H]1CCCN1C [II-29] | 22 | 0.52 | 28 | 79 | 731
C[C@H](Oc1cc(O[C@@H]2CNC2(C)C)nc(-c2noc3c2CCC[C@@]32CCCc3sc(N)c(C#N)c32)n1)[C@@H]1CCCN1C [II-9] | 5 | 0.52 | <24 | 133 | 1250
C[C@H](Oc1cc(Nc2cccnn2)nc(-c2noc3c2CCC[C@@]32CCCc3sc(N)c(C#N)c32)n1)[C@@H]1CCCN1C [II-18] | 46 | 0.61 | 41 | 37 | 822
C[C@H](Oc1cc(Oc2cncnc2)nc(-c2noc3c2CCC[C@@]32CCCc3sc(N)c(C#N)c32)n1)[C@@H]1CCCN1C [II-1] | 6 | 0.19 | <24 | 4 | 715
COC[C@H](C)Nc1cc(O[C@@H](C)[C@@H]2CCCN2C)nc(-c2onc3c2CCC[C@@]32CCCc3sc(N)c(C#N)c32)n1 [Example I-5] | 122 | 0.45 | <24 | 71 | 

Further compounds by falling GI50 (KRAS G12D Ba/F3), results first:

GI50 (KRAS G12D Ba/F3) [nM] | fraction unbound [1] | HLM QH [%] [2] [%] | GI50 (KRAS G12C Ba/F3) [nM] | IC50 (NCI-H2122 cells) [nM] | Compound
91 | 0.12 | <24 | 218 | 1460 | C[C@H](Oc1cc(O[C@H]2CN(C)C(C)(C)C2)nc(-c2noc3c2CCC[C@@]32CCCc3sc(N)c(C#N)c32)n1)[C@@H]1CCCN1C [II-19]
65 | 0.07 | <24 | 44 | 1740 | C[C@H](Oc1cc(Nc2nccs2)nc(-c2noc3c2CCC[C@@]32CCCc3sc(N)c(C#N)c32)n1)[C@@H]1CCCN1C [II-12]
43 | 0.37 | 42 | 24 |  | C[C@H](Oc1cc(Nc2ccccn2)nc(-c2noc3c2CCC[C@@]32CCCc3sc(N)c(C#N)c32)n1)[C@@H]1CCCN1C [II-16]
41 | 0.6 | 26 | 83 | 2390 | C[C@H](Oc1cc(N[C@H]2CCOC2)nc(-c2onc3c2CCC[C@@]32CCCc3sc(N)c(C#N)c32)n1)[C@@H]1CCCN1C [Example I-4]
6 | 0.46 | 53 | 22 | 1710 | C[C@H](Oc1cc(OCC2(N(C)C)COC2)nc(-c2noc3c2CCC[C@@]32CCCc3sc(N)c(C#N)c32)n1)[C@@H]1CCCN1C [II-22]
5 | 0.3 | 37 | 219 | 1220 | CO[C@@H]1C[C@@H]([C@H](C)Oc2cc(O[C@@H]3CNC3(C)C)nc(-c3noc4c3CCC[C@@]43CCCc4sc(N)c(C#N)c43)n2)N(C)C1 [II-30]
